Measured values: patent publication US20250302862A1, “SMALL RNA DRUG FOR INHIBITING ACTIVITY OF CANCER CELLS” (Institute of Basic Medical Sciences Chinese Academy of …, priority 2022, published 2025)

Key:
[1] = test system: breast cancer MDA-MB-231 cells; test: Concentration-dependent proliferation inhibition, MTS; assay type: cell-based; conditions: gradient 0.01-100 noml/L, MTS after 48 h
Experimental: 1) Breast cancer MCF7 cells, breast cancer MDA-MB-231 cells, gastric cancer AGS cells, pancreatic cancer HS766T cells, pancreatic cancer ASPC-1 cells, and prostate cancer PC-3 cells with a cell density of more than 90% in 10 cm^2 plates were plated in 96-well according to the cell growth rate. Transfection was performed after 12 h, and the groups (3 wells per group) were divided as follows: • blank control group: 20 uL of opti-MEM • negative control group (NC group) and experimental group: • A. 10 uL of opti-MEM and 0.2 uL of iMax were mixed well for 5 min • B. 10 uL of opti-MEM and small RNA were mixed well (the concentration gradient of experimental group was set as: 0.01 noml/L, 0.03 noml/L, 0.1 noml/L, 0.39 noml/L, 0.78 noml/L, 1.56 noml/L, 3.125 noml/L, 6.25 noml/L, 12.5 noml/L, 25 noml/L, 50 noml/L, 100 noml/L; the final concentration of sRNA in NC group was 100 noml/L) • C. solution A and solution B were mixed well and let stand for 15 min, and then was added at a 20 uL system • Note: 100 uL of nuclease-free water was added to 2 nmol of small RNA dry powder for dissolution at a storage concentration of 20 umol/L
2) Detection of cell viability: MTS detection was performed after 48 h.
Formulation of MTS detection solution was as follows: opti-MEM:MTS A solution:MTS B solution=100:20:1. […] Absorbance values at wavelengths of 490 nm and 630 nm were measured in a microplate reader. […]

[2] = test system: pancreatic cancer ASPC-1 cells; test: Cell migration (Transwell); assay type: cell-based, human; conditions: 100 nmol/L, jetPRIME, 72 h
Experimental: (§1) 1) ASPC-1 cells and BXPC-3 cells with a cell density of more than 90% in 10 cm^2 dishes were digested and then resuspended with 1 mL of serum-free medium and counted. 100,000 cells (100 uL) were plated in the upper chamber, and complete medium with 10% FBS was added to the lower chamber of each Transwell chamber. Transfection was performed after 12 h, and the groups (3 wells per group) were divided: • blank control group: 10 uL of jetPRIME Buffer • negative control group (NC group) and experimental group: 10 uL of jetPRIME Buffer was mixed well with 0.5 uL of jetPRIME reagent and 0.5 uL of small RNA and let stand for 15 min, and then was added to each well at a 10 uL system (final concentration 100 nmol/L) • Note: 100 uL of nuclease-free water was added to 2 nmol of small RNA dry powder for dissolution at a storage concentration of 20 umol/L
(§2) After 72 h, the medium in upper and lower chambers was discarded. The cells were fixed with paraformaldehyde at room temperature for 15 min, stained with 0.1% crystal violet at room temperature for 15 min, and rinsed with PBS. The cells in the upper chamber were gently wiped off with cotton swabs, and the chamber was dried. A Leica inverted microscope DMi8 was turned on, the 5× objective lens was selected, the parameters were adjusted and the white balance was performed following the manual. Each chamber was photographed, followed by counting and statistic processing.
as §1, with “divided as follows:” for “divided:”

[3] = test system: pancreatic cancer BXPC-3 cells; test: Cell migration (Transwell); assay type: cell-based, human; conditions: 100 nmol/L, jetPRIME, 72 h
Experimental: as §1, §2
as §1, with “divided as follows:” for “divided:”

Row | Substance | proliferation-inhibiting function (cell activity, MTS) [1] | cell migration [2] | cell migration [3]
1 | MDM-sRNA-163: small RNA derived from Maytenus hookeri, sequence UGACUCUAGUCCGACUUUGUGAAAUGACU (listed as RNA, chemistry not given here) | concentration-dependent | inhibits | inhibits
2 | MDM-sRNA-39: small RNA derived from Maytenus hookeri, sequence GGGAUUGUAGUUCAAUUGGUCAGAGCACC (listed as RNA, chemistry not given here) | concentration-dependent | inhibits | inhibits
